Experimental data published in paper PMC4452912 (Viruses, 2015).
Like-named read-outs stand apart in the source and are kept apart here.

Key:
[1] = target: T1, ER α-glucosidase I (Rattus norvegicus, UniProt O88941); assay: Purified enzyme inhibition, ER α-glucosidase I; format: biochemical
T1 sequence (O88941 1-834): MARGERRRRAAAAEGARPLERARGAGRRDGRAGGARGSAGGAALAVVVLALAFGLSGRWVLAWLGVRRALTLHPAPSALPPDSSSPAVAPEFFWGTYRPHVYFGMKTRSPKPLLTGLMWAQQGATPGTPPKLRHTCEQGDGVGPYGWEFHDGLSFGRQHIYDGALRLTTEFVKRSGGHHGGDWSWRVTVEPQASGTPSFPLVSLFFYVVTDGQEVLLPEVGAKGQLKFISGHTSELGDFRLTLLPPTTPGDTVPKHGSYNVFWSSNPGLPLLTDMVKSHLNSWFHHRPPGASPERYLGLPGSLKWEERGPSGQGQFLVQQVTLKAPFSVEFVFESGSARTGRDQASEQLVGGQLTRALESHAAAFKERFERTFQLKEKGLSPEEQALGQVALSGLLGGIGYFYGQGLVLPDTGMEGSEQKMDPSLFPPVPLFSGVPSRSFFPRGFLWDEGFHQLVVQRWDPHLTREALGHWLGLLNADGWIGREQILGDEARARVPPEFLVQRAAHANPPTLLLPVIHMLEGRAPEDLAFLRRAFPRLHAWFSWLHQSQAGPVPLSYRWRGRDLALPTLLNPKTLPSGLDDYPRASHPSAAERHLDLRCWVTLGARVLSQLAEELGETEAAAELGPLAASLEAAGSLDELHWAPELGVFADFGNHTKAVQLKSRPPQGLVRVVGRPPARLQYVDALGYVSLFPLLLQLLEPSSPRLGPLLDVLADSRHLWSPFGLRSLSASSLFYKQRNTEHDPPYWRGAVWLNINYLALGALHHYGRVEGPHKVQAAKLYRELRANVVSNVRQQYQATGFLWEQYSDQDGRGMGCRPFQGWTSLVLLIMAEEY

[2] = in vitro; format: cell-based, canine; settings: dog
[3] = system: DENV (serotype 2, New Guinea C isolate); assay: microbe, parasite or virus in culture; format: cell-based; settings: Dengue virus, DENV2, 120 h; Vero cells, MOI 0.01, 5 days; mean of duplicate
[4] = system: Venezuelan Equine Encephalitis virus (VEEV, TC-83 vaccine strain); assay: microbe, parasite or virus in culture; format: cell-based; settings: Vero, 72 h, read-out: IC50 VEEV
[5] = in vitro; format: in vitro ADME; settings: human, plasma
[6] = in vitro; format: in vitro ADME; settings: rat, plasma
[7] = in vitro; format: in vitro ADME; settings: mouse, plasma
[8] = in vitro; format: in vitro ADME; settings: rat, microsomes
[9] = in vitro; format: in vitro ADME; settings: mouse, microsomes
[10] = target: T2, CYP1A2 (Homo sapiens, UniProt P05177); assay: CYP inhibition in human liver microsomes, CYP1A2; format: in vitro ADME
T2 sequence (P05177 1-516): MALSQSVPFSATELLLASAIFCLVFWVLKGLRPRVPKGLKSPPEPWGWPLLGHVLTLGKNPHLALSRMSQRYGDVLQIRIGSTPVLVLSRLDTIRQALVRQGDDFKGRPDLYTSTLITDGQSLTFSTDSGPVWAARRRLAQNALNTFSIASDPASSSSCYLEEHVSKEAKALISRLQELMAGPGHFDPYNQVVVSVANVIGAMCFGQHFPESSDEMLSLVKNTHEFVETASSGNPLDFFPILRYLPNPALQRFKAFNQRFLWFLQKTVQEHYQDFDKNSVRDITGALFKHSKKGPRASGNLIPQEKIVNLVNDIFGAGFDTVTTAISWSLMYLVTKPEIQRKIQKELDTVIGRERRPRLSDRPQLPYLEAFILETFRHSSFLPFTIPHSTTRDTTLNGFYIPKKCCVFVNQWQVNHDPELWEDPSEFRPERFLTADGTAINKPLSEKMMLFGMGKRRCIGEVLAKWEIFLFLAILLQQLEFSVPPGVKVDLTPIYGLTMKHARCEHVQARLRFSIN

[11] = target: CYP2C9 (Homo sapiens, UniProt P11712); assay: CYP inhibition in human liver microsomes, CYP2C9; format: in vitro ADME
[12] = target: CYP2C19 (Homo sapiens, UniProt P33261); assay: CYP inhibition in human liver microsomes, CYP2C19; format: in vitro ADME
[13] = system: DENV2 strain S221; format: in vivo, AG129 mice
[14] = system: DENV2 strain S221; assay: Dengue viral load by qRT-PCR in serum and tissues of AG129 mice; format: in vivo; settings: 100 mg/kg TID
[15] = system: circulating cytokines and chemokines; assay: Serum cytokine levels in DENV infected AG129 mice (23-plex); format: in vivo; settings: 100 mg/kg TID
[16] = 10 day repeat dose oral safety study in mice; format: in vivo, Swiss Albino mice; settings: male mice
[17] = Mouse pharmacokinetics; format: in vivo, Swiss Albino mice; settings: male, Swiss Albino
[18] = physchem; settings: aqueous buffer
[19] = 72 h post infection, vs vehicle
[20] = 100 mg/kg PO TID 10 days, vs control

CYP2C19, sequence (P33261 whole entry): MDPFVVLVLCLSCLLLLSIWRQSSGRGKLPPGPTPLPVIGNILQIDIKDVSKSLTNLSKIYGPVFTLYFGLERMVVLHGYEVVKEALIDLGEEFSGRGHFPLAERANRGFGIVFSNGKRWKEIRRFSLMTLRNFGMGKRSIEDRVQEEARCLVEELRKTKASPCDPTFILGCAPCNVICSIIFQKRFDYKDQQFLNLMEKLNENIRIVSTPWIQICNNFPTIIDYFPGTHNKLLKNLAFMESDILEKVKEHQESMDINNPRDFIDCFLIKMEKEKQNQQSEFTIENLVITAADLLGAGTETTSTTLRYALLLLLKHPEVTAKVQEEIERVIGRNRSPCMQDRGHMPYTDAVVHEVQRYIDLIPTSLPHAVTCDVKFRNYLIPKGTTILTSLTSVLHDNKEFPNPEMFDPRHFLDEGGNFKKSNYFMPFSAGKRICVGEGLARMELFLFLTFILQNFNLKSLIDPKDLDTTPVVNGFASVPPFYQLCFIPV
CYP2C9, sequence (P11712 whole entry): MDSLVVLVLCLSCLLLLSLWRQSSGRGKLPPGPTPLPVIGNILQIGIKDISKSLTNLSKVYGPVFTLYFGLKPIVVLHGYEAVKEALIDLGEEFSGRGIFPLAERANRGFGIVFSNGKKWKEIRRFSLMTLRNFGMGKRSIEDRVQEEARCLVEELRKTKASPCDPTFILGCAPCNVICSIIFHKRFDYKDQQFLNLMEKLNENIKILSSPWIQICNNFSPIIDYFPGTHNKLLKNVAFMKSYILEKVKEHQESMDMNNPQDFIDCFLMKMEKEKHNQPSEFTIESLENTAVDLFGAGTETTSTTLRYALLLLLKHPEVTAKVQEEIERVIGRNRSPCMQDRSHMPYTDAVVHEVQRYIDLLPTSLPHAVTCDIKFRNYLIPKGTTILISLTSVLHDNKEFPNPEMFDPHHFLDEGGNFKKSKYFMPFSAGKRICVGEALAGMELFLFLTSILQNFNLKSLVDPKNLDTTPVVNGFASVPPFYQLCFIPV

`OC[C@@H]1[C@@H](O)[C@H](O)[C@@H](O)CN1CCCCCCCCC1CCCO1` (stereo partly drawn) [UV-12] gave an IC50 [1] of 140 ± 100 nM, a CC50 at 5 days [2] greater than 500 µM and an IC50 [3] of 21.7 µM. The IC50 [4] was 69.4 µM, the fraction unbound at 6 h, 10 μM [5] was 0.32 and the fraction unbound at 6 h, 10 μM [6] was 0.32. The fraction unbound at 6 h, 10 μM [7] was 0.36, the “Liver microsome metabolic stability CLintr” value [8] was less than 0.6 mL/min/g liver and the half-life at 0.5 µM [8] was greater than 30 min. The “parent drug remained after 30 min” value ([8]; 0.5 h, 0.5 µM) was 100%, the “Liver microsome metabolic stability CLintr” value [9] was less than 0.6 mL/min/g liver and the half-life at 0.5 µM [9] was greater than 30 min. For the same compound, the “parent drug remained after 30 min” value ([9]; 0.5 h, 0.5 µM) was 100%, the IC50 [10] was greater than 100 µM and the IC50 [11] was greater than 100 µM. The IC50 [12] was greater than 100 µM, the “animals protected (survival)” value ([13]; 20 mg/kg PO TID 7 days from 1 h before challenge) was 100% and the “animals protected (survival)” value ([13]; 100 mg/kg PO TID 7 days from 1 h before challenge) was 100%. For the same compound, the “viral loads in serum, liver or spleens” value ([14]; 72 and 96 h) was “not reduced”, the “decrease in viral load, kidneys” value [14, 19] was 12.9 fold and the “decrease in viral load, small intestine” value [14, 19] was 6.1 fold. For the same compound, the “increase in virus titers, spleens” value ([14]; 72 h time point) was 5 fold, the “decrease in viral load, kidneys” value ([14]; 96 h post infection, vs vehicle) was 5.23 fold and the “Levels of IL-9 and eotaxin” value [15] was “not different”. For the same compound, the “reduction in MCP-1” value ([15]; 72 h, p = 0.0641) was “not significant”, the KC levels ([15]; 72 h only) was “significantly higher” and the “Levels of IFN-γ” value ([15]; only at 72 h) was “significantly reduced”. The “MIP-1β, RANTES, and IL-10 levels” value ([15]; only at 96 h) was “reduced”, the “overall circulating cytokine levels” value ([15]; vs vehicle) was “dampened” and the “average weight lost at end of treatment” value ([16]; 100 mg/kg PO TID 10 days) was 1.72 g. The “thymus finding at necropsy/histopathology” value ([16]; 100 mg/kg PO TID 10 days, associated with decreased thymus weight) was “lymphoid depletion”, the “average weight lost at end of treatment” value ([16]; 100 mg/kg PO TID 10 days, not statistically significant) was 4.53% and the “decreased ALP” value [16, 20] was 45%. For the same compound, the decreased glucose [16, 20] was 29%, the “increased AST” value [16, 20] was 76% and the “mortality, general health, body weights, food consumption” value ([16]; 100 mg/kg PO three times daily, 10 days) was “neither mortality nor any noteworthy effects”. The Cmax ([17]; in vivo) was 8880 to 12600 ng/mL, the bioavailability ([17]; in vivo) was 77% and the “CL as % of mouse liver blood flow” value ([17]; in vivo, iv) was 31%. The “Vss relative to total body water” value ([17]; in vivo, iv) was 3 fold, the AUC(0-inf) ([17]; in vivo, iv, 10 mg/kg) was 5910 ng·h/mL and the AUC(0-t) ([17]; in vivo, iv, 10 mg/kg) was 5900 ng·h/mL. It also gave a Cmax ([17]; in vivo, iv, 10 mg/kg) of 8880 ng/mL, a Vd ([17]; in vivo, iv, 10 mg/kg) of 1.98 L/kg and a clearance ([17]; in vivo, iv, 10 mg/kg) of 28.2 mL/min/kg. The AUC(0-inf) ([17]; in vivo, po, 100 mg/kg) was 45500 ng·h/mL, the AUC(0-t) ([17]; in vivo, po, 100 mg/kg) was 43100 ng·h/mL and the Cmax ([17]; in vivo, po, 100 mg/kg) was 12600 ng/mL. For the same compound, the Tmax ([17]; in vivo, po, 100 mg/kg) was 30 min, the half-life ([17]; plasma, mice, IV 10 mg/kg) was 115 min and the solubility [18] was greater than 100 mg/mL.
